Calls of active or inactive are those of the source. No cut-off for these calls is given here.
Legend:
[1] = target: T1, Dual specificity mitogen-activated protein kinase kinase 1 (Homo sapiens, UniProt Q02750); assay: Inhibition of MEK1 (unknown origin) incubated for 1 hrs in the presence of ATP by FRET-based Z'-Lyte assay
A-375 [2] = assay: Antiproliferative activity against human A-375 cells harboring BRAF V600E mutant assessed as cell growth inhibition preincubated with compound for 1 hrs followed by UV irradiation for 1 min and measured 72 hrs post compound treatment by CellTiter-Glo luminescent assay; format: functional; details: A-375, light or radiation study
A-375 [3] = assay: Antiproliferative activity against human A-375 cells harboring BRAF V600E mutant assessed as cell growth inhibition preincubated with compound for 1 hrs followed by UV irradiation for 3 mins and measured 72 hrs post compound treatment by CellTiter-Glo luminescent assay; format: functional; details: A-375, light or radiation study
A-375 [4] = assay: Inhibition of colony formation in human A-375 cells at 10 to 300 nM incubated for 10 days by crystal violet staining based analysis; format: functional, cell-based; details: dose 10-300 nM, time 10.0 day
A-375 [5] = assay: Inhibition of colony formation in human A-375 cells preincubated with compound for 1 hrs followed by 365 nm light irradiation for 5 mins and measured for 10 days by crystal violet staining based analysis; format: functional, cell-based; details: dose 10-300 nM, time 14465.0 min
[6] = target: Serine/threonine-protein kinase B-raf (Homo sapiens) (UniProt P15056); assay: Inhibition of recombinant human BRAF at 1 uM
Serine/threonine-protein kinase B-raf (Homo sapiens), sequence (P15056 whole entry): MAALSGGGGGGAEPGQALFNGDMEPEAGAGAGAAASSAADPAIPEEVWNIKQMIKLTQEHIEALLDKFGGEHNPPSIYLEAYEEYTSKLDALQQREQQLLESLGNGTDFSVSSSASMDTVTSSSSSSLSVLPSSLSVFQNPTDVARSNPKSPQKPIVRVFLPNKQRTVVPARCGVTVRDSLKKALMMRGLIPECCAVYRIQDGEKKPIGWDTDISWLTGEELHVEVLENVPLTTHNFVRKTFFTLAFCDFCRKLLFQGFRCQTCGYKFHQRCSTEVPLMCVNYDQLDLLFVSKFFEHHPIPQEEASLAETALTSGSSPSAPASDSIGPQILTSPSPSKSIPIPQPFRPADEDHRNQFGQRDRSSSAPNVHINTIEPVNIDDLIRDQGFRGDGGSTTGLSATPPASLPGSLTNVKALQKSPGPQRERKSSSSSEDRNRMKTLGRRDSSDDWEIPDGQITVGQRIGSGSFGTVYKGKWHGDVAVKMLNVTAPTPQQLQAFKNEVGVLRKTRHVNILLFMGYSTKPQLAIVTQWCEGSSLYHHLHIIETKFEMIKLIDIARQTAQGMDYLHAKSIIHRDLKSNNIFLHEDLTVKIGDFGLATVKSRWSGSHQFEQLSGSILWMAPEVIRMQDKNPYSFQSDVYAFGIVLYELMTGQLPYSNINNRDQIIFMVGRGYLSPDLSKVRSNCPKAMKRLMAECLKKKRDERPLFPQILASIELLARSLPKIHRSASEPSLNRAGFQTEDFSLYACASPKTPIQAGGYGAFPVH

[7] = target: T1, Dual specificity mitogen-activated protein kinase kinase 1; assay: Inhibition of recombinant human MEK1 at 1 uM
[8] = target: Ribosomal protein S6 kinase alpha-1 (Homo sapiens) (UniProt Q15418); assay: Inhibition of recombinant human RSK1 at 1 uM
Ribosomal protein S6 kinase alpha-1 (Homo sapiens), sequence (Q15418 whole entry): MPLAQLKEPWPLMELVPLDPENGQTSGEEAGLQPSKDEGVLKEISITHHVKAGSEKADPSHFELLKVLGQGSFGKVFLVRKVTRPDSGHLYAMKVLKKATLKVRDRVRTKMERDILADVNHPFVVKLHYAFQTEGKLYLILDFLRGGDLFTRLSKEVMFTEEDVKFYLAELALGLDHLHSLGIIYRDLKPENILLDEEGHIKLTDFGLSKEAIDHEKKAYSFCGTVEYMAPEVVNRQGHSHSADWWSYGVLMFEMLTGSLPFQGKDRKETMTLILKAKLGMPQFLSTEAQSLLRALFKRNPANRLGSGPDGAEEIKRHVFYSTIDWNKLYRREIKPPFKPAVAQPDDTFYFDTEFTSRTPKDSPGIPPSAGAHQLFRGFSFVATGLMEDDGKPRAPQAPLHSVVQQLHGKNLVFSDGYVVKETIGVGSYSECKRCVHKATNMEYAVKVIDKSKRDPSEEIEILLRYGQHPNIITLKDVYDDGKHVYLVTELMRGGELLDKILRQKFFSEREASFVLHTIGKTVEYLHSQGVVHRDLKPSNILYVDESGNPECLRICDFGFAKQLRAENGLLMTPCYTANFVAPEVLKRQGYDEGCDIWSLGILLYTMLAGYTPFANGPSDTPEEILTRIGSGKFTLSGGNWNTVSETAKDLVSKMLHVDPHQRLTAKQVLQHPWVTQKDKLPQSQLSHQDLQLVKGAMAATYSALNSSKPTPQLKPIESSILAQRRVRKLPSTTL

[9] = target: RAC-alpha serine/threonine-protein kinase (Homo sapiens) (UniProt P31749); assay: Inhibition of recombinant human AKT1 at 1 uM
RAC-alpha serine/threonine-protein kinase (Homo sapiens), sequence (P31749 whole entry): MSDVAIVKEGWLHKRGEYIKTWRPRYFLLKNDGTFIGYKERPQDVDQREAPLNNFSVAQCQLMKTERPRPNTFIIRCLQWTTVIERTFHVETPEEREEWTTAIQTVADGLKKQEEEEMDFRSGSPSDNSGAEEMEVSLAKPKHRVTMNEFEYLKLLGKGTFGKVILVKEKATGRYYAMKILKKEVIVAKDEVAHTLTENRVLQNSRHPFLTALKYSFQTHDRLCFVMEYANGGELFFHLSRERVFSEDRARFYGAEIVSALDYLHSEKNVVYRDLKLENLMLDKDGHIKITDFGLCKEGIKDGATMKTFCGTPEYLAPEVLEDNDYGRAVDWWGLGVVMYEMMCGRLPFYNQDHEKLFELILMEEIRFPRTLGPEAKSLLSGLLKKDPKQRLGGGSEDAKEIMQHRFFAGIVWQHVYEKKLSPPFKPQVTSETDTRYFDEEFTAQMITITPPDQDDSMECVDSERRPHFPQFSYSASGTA

Homo sapiens = species: Homo sapiens; assay: Inhibition of recombinant human PI3K at 1 uM
A-375 [10] = assay: Inhibition of MEK/ERK/RSK signaling in human A-375 cells assessed as inhibition of ERK phosphorylation at 5 nM in the presence of 365 nm light irradiation for 30 sec to 5 min by Western blot analysis; format: cell-based
CYP2C9 = CYP2C9 (Homo sapiens, UniProt P11712); assay: Inhibition of CYP2C9 in human microsomes at 10 uM in the presence of NADPH relative to control; format: ADME, Microsome
CYP2C9, sequence (P11712 whole entry): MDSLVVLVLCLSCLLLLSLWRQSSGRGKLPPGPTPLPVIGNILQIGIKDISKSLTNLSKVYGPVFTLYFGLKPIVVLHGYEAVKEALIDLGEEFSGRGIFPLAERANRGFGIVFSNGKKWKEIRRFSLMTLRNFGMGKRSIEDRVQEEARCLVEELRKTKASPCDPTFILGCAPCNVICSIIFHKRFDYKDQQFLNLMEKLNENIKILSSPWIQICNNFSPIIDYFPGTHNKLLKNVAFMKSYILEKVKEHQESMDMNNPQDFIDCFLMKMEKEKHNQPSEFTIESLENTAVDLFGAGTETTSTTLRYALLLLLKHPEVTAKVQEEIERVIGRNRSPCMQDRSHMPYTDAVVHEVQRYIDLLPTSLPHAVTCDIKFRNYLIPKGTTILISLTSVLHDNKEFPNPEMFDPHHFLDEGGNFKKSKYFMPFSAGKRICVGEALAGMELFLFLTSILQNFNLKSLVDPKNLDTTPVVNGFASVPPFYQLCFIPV

CYP3A4 = CYP3A4 (Homo sapiens, UniProt P08684); assay: Inhibition of CYP3A4 in human microsomes at 10 uM in the presence of NADPH relative to control; format: ADME, Microsome
CYP3A4, sequence (P08684 whole entry): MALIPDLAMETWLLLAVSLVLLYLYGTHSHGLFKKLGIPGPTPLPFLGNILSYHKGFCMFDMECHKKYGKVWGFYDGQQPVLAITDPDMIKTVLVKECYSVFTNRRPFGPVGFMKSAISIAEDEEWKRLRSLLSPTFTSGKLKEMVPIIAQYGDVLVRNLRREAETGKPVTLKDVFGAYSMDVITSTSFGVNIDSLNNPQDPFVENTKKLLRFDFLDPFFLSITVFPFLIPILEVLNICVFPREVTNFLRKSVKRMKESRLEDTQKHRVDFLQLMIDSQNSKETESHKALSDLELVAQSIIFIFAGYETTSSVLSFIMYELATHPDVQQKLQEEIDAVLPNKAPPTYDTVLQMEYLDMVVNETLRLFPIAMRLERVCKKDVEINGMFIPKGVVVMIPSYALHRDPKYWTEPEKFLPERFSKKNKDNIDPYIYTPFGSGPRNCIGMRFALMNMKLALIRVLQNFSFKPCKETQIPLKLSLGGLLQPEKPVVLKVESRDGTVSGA

T1 sequence (Q02750 whole entry): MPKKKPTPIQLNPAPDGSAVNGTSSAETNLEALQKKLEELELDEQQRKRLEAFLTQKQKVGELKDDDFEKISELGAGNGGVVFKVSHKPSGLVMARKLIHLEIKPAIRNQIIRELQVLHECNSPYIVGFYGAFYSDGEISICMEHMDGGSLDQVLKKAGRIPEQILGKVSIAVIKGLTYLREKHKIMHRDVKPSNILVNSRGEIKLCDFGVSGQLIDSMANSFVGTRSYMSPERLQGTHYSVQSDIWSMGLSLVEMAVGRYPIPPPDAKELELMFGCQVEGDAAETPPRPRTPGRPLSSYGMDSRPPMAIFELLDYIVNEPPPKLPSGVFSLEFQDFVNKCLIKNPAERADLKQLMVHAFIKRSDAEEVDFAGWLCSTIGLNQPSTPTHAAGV

IC50 [1]: > 30000 nM
GI50 (A-375 [2]): 6.29 nM
GI50 (A-375 [3]): 2.95 nM
inhibition [6]: inactive
inhibition [7]: inactive
inhibition [8]: inactive
inhibition [9]: inactive
inhibition (Homo sapiens): inactive
inhibition at 10 µM (CYP2C9): 63.3%
inhibition at 10 µM (CYP3A4): 92.4%
Structure (SMILES): COc1cc(C(C)O/C(=N\OC[C@H](O)CO)c2ccc(F)c(F)c2Nc2ccc(I)cc2F)c([N+](=O)[O-])cc1OC (stereo partly drawn)
inhibition (A-375 [4]): inactive
inhibition (A-375 [5]): Active
inhibition (A-375 [10]): Active

— ChEMBL document CHEMBL5346924, “Optically activated MEK1/2 inhibitors (Opti-MEKi) as potential antimelanoma agents” (Eur J Med Chem, 2023)
